Measurements reported in patent publication US10912301B2, “Herbicide combinations comprising L-glufosinate and indaziflam” (BASF SE, priority 2015, dated 2021).
Where two headings read alike, the source gives them in different places.

Assays:
[1] = test system: Amaranthus retroflexus (AMARE); test: Greenhouse pot trial, single post-emergence treatment, herbicidal activity rating; format: in vivo; settings: BBCH growth stage 11-12, 12 g/ha indaziflam
Method: (§1) In separate pots, biological trials were conducted in the greenhouse under identical conditions (apart from the treatment with the different products P1, P2 and P3 mentioned above). Each pot contained the same soil and the same amount of seeds of each of the following weeds (two monocotyledonous and two dicotyledonous harmful plant species (weed species)):
(§2) The Tables 1 to 6 reflect the observations after certain periods of time, indicated in days (referred to as DAA=days after application) after start of treatment with/application of the respective product P1, P2 or P3 mentioned above, each in the amounts indicated below.
(§3) Indaziflam was used in an amount of 12 g/ha.

Poa annua (POAAN) = test: as above; format: in vivo; settings: BBCH growth stage 11-12, 12 g/ha indaziflam
Method: as §1, §2, §3

[2] = test system: Lolium multiflorum (LOLMU); test: as above; format: in vivo; settings: BBCH growth stage 11-12, 12 g/ha indaziflam
Method: as §1, §2, §3

Stellaria media (STEME) = test: as above; format: in vivo; settings: BBCH growth stage 11-12, 12 g/ha indaziflam
Method: as §1, §2, §3

[3] = test system: monocotyledonous and dicotyledonous harmful plant species; test: Post-emergence efficacy of indaziflam alone; format: in vivo; settings: product containing 4 g/L of indaziflam, dose rate 12 g/ha
[4] = test system: monocotyledonous and dicotyledonous harmful plant species; settings: stated as known; cited from earlier work

For `Cc1ccc2c(c1)[C@H](Nc1nc(N)nc([C@@H](C)F)n1)[C@@H](C)C2` (mixture of isomers) [indaziflam, N^2-[(1R,2S)-2,3-dihydro-2,6-dimethyl-1H-inden-1-yl]-6-[(1RS)-1-fluoroethyl]-1,3,5-triazine-2,4-diamine], the “Ratings of herbicidal activity: Regrowth” value [1] was “very weak herbicidal effect starting on day 7 after treatment”, the “Ratings of herbicidal activity: Regrowth” value (Poa annua (POAAN)) was “no herbicidal effect” and the “Ratings of herbicidal activity: Regrowth” value [2] was “no herbicidal effect”. For the same compound, the “Ratings of herbicidal activity: Regrowth” value (Stellaria media (STEME)) was “no herbicidal effect”, the post-emergence efficacy [3] was “only very limited post-emergence efficacy” and the post-emergence efficacy [4] was “insufficient post-emergence efficacy”.
